In brackets after ≈: the same amount, converted by molar mass. Activity calls are given as the source filed them. The rule behind the calls is not given here.
Legend:
Escherichia coli [1] = test: (§1) Anti-bacterial activity against Escherichia coli ATCC 25922 assessed as fractional inhibitory concentration measured upto 9 hrs in presence of ethyl(E)-6-((4-(2-(2-aminothiazol-4-yl)-2-(methoxyimino)acetyl)piperazin-1-yl)methyl)-4-(2-butyl-4-chloro-1H-imidazole-5-yl)-2-oxo-1,2,3,4-tetrahydropyrimidine-5-carboxylate; format: functional
Acinetobacter baumannii [2] = test: Anti-bacterial activity against Acinetobacter baumannii assessed as inhibition of bacterial growth measured after 6-7 th passages at sub-MIC concentration by multiple resistance study; format: functional, organism-based
Staphylococcus aureus [3] = test: Anti-bacterial activity against Staphylococcus aureus ATCC 6538 assessed as inhibition of bacterial growth; format: functional
Escherichia coli [4] = test: Anti-bacterial activity against Escherichia coli ATCC 25922 assessed as growth inhibition by measuring optical density measured at 1/4 times of MIC of norfloxacin by Checkerboard assay (reference value: 0.129); format: functional
Pseudomonas aeruginosa [5] = test: Anti-bacterial activity against Pseudomonas aeruginosa ST235 assessed as inhibition of bacterial growth; format: functional; settings: Pseudomonas aeruginosa, ST235; read-out: MIC
Staphylococcus aureus [6] = test: Anti-bacterial activity against methicillin-resistant Staphylococcus aureus ATCC 43300 assessed as inhibition of bacterial growth; format: functional; settings: Staphylococcus aureus, ATCC 43300; read-out: MIC
Enterococcus faecalis = test: Anti-bacterial activity against Enterococcus faecalis V583 assessed as inhibition of bacterial growth; format: functional
Staphylococcus aureus [7] = test: Anti-bacterial activity against Staphylococcus aureus ATCC 25923 assessed as inhibition of bacterial growth; format: functional; settings: Staphylococcus aureus, ATCC 25923; read-out: MIC
Acinetobacter baumannii [8] = test: Anti-bacterial activity against Acinetobacter baumannii assessed as growth inhibition by measuring optical density measured at 1/4 time of MIC (reference value: 0.156); format: functional
Staphylococcus aureus [9] = test: Anti-bacterial activity against methicillin-resistant Staphylococcus aureus N315 assessed as inhibition of bacterial growth; format: functional; settings: Staphylococcus aureus, N315; read-out: MIC
Staphylococcus aureus [10] = test: Anti-bacterial activity against Staphylococcus aureus CMCC (B) 26003 assessed as inhibition of bacterial growth; format: functional
Pseudomonas aeruginosa [11] = test: Anti-bacterial activity against Pseudomonas aeruginosa ATCC 9027 assessed as inhibition of bacterial growth; format: functional
Pseudomonas aeruginosa [12] = test: Anti-bacterial activity against Pseudomonas aeruginosa ATCC 27853 assessed as inhibition of bacterial growth; format: functional; settings: Pseudomonas aeruginosa, ATCC 27853; read-out: MIC
Acinetobacter baumannii [13] = test: Anti-bacterial activity against Acinetobacter baumannii assessed as growth inhibition by measuring optical density measured at 2 time of MIC (reference value: 0.156); format: functional
Acinetobacter baumannii [14] = test: Drug resistance, ratio of MIC for Acinetobacter baumannii after 20 passages exposure to MIC for Acinetobacter baumannii after first exposure; format: functional
Acinetobacter baumannii [15] = test: Anti-bacterial activity against Acinetobacter baumannii assessed as growth inhibition by measuring optical density measured at 1 time of MIC (reference value: 0.156); format: functional
Pseudomonas aeruginosa [16] = test: Anti-bacterial activity against Pseudomonas aeruginosa CMCC (B) 10104 assessed as inhibition of bacterial growth; format: functional; settings: Pseudomonas aeruginosa, CMCC (B) 10104; read-out: MIC
Escherichia coli [17] = test: Anti-bacterial activity against Escherichia coli ATCC 25922 assessed as growth inhibition by measuring optical density measured at 1 times of MIC of norfloxacin by Checkerboard assay (reference value: 0.129); format: functional
Acinetobacter baumannii [18] = test: Anti-bacterial activity against Acinetobacter baumannii assessed as growth inhibition by measuring optical density measured at 1/8 time of MIC (reference value: 0.156); format: functional
Escherichia coli [19] = test: Drug resistance, ratio of MIC for Escherichia coli ATCC 25922 after 20 passages exposure to MIC for Escherichia coli ATCC 25922 after first exposure; format: functional
Escherichia coli [20] = test: Anti-bacterial activity against Escherichia coli ATCC 25922 assessed as growth inhibition by measuring optical density measured at 1/2 times of MIC of norfloxacin by Checkerboard assay (reference value: 0.129); format: functional
Escherichia coli [21] = test: Anti-bacterial activity against Escherichia coli ATCC 25922 assessed as inhibition of bacterial growth measured after 6-7 th passages at sub-MIC concentration by multiple resistance study; format: functional, organism-based
Staphylococcus aureus [22] = test: Anti-bacterial activity against Staphylococcus aureus ATCC 29213 assessed as inhibition of bacterial growth; format: functional; settings: Staphylococcus aureus, ATCC 29213; read-out: MIC
Escherichia coli [23] = test: Anti-bacterial activity against Escherichia coli ATCC 25922 assessed as inhibition of bacterial growth; format: functional
Klebsiella pneumoniae = test: Anti-bacterial activity against Klebsiella pneumoniae KPN325 assessed as inhibition of bacterial growth; format: functional; settings: Klebsiella pneumoniae, KPN325; read-out: MIC
Acinetobacter baumannii [24] = test: as §1, with “Acinetobacter baumannii” for “Escherichia coli ATCC 25922”; format: functional
Acinetobacter baumannii [25] = test: Anti-bacterial activity against Acinetobacter baumannii assessed as growth inhibition by measuring optical density measured at 1/2 time of MIC (reference value: 0.156); format: functional
Escherichia coli [26] = test: Anti-bacterial activity against Escherichia coli JM109 assessed as inhibition of bacterial growth; format: functional
Pseudomonas aeruginosa [27] = test: Anti-bacterial activity against Pseudomonas aeruginosa ATCC 15442 assessed as inhibition of bacterial growth; format: functional; settings: Pseudomonas aeruginosa, ATCC 15442; read-out: MIC
Acinetobacter baumannii [28] = test: Anti-bacterial activity against Acinetobacter baumannii R674 assessed as inhibition of bacterial growth; format: functional
Staphylococcus aureus [29] = test: Anti-bacterial activity against Staphylococcus aureus ATCC 12600 assessed as inhibition of bacterial growth; format: functional; settings: Staphylococcus aureus, ATCC 12600; read-out: MIC
Escherichia coli [30] = test: Anti-bacterial activity against Escherichia coli ATCC 25922 assessed as growth inhibition by measuring optical density measured at 1/8 times of MIC of norfloxacin by Checkerboard assay (reference value: 0.129); format: functional
Staphylococcus aureus [31] = test: Anti-bacterial activity against Staphylococcus aureus CMCC (B) 26001 assessed as inhibition of bacterial growth; format: functional
Staphylococcus aureus [32] = test: Anti-bacterial activity against Staphylococcus aureus ATCC 1708 assessed as inhibition of bacterial growth; format: functional; settings: Staphylococcus aureus, ATCC 1708; read-out: MIC
Escherichia coli [33] = test: Anti-bacterial activity against Escherichia coli ATCC 25922 assessed as growth inhibition by measuring optical density measured at 2 times of MIC of norfloxacin by Checkerboard assay (reference value: 0.129); format: functional
Candida albicans [34] = test: Anti-fungal activity against Candida albicans assessed as inhibition of fungal growth; format: functional; settings: Candida albicans; read-out: MIC
Candida parapsilosis = test: Anti-fungal activity against Candida parapsilosis assessed as inhibition of fungal growth; format: functional; settings: Lodderomyces parapsilosis; read-out: MIC
Candida albicans [35] = test: Anti-fungal activity against Candida albicans 90023 assessed as inhibition of fungal growth; format: functional
Candida tropicalis = test: Anti-fungal activity against Candida tropicalis assessed as inhibition of fungal growth; format: functional; settings: Candida tropicalis; read-out: MIC

For `CCn1cc(C(=O)O)c(=O)c2cc(F)c(N3CCNCC3)cc21` [NORFLOXACIN], the FIC (Escherichia coli [1]) was 0.25, the Activity (Acinetobacter baumannii [2]) was “inactive” and the MIC (Staphylococcus aureus [3]) was 6 µM (≈ 1.92 µg/mL). The OD (Escherichia coli [4]) was 0.128, the MIC (Pseudomonas aeruginosa [5]) was 6 µM (≈ 1.92 µg/mL) and the MIC (Staphylococcus aureus [6]) was 3 µM (≈ 0.958 µg/mL). It also gave an MIC (Enterococcus faecalis) of 6 µM (≈ 1.92 µg/mL), an MIC (Staphylococcus aureus [7]) of 6 µM (≈ 1.92 µg/mL) and an OD (Acinetobacter baumannii [8]) of 0.142. For the same molecule, the MIC (Staphylococcus aureus [9]) was 6 µM (≈ 1.92 µg/mL), the MIC (Staphylococcus aureus [10]) was 6 µM (≈ 1.92 µg/mL) and the MIC (Pseudomonas aeruginosa [11]) was 6 µM (≈ 1.92 µg/mL). The MIC (Pseudomonas aeruginosa [12]) was 25 µM (≈ 7.98 µg/mL), the OD (Acinetobacter baumannii [13]) was 0.136 and the Ratio (Acinetobacter baumannii [14]) was 32. It also gave an OD (Acinetobacter baumannii [15]) of 0.138, an MIC (Pseudomonas aeruginosa [16]) of 6 µM (≈ 1.92 µg/mL) and an OD (Escherichia coli [17]) of 0.129. It also gave an OD (Acinetobacter baumannii [18]) of 0.155, a Ratio (Escherichia coli [19]) of 16 and an OD (Escherichia coli [20]) of 0.128. The Activity (Escherichia coli [21]) was “inactive”, the MIC (Staphylococcus aureus [22]) was 6 µM (≈ 1.92 µg/mL) and the MIC (Escherichia coli [23]) was 13 µM (≈ 4.15 µg/mL). For the same molecule, the MIC (Klebsiella pneumoniae) was 3 µM (≈ 0.958 µg/mL), the FIC (Acinetobacter baumannii [24]) was 0.25 and the OD (Acinetobacter baumannii [25]) was 0.141. It also gave an MIC (Escherichia coli [26]) of 25 µM (≈ 7.98 µg/mL), an MIC (Pseudomonas aeruginosa [27]) of 6 µM (≈ 1.92 µg/mL) and an MIC (Acinetobacter baumannii [28]) of 13 µM (≈ 4.15 µg/mL). It also gave an MIC (Staphylococcus aureus [29]) of 6 µM (≈ 1.92 µg/mL), an OD (Escherichia coli [30]) of 0.125 and an MIC (Staphylococcus aureus [31]) of 6 µM (≈ 1.92 µg/mL). The MIC (Staphylococcus aureus [32]) was 3 µM (≈ 0.958 µg/mL) and the OD (Escherichia coli [33]) was 0.128.

Work on `CCOC(=O)C1=C(CN2CCN(C(=O)/C(=N/OC)c3csc(N)n3)CC2)NC(=O)NC1c1ccc(OC)cc1` (stereo unspecified) yielded an MIC (Candida albicans [34]) of 470 µM (≈ 262 µg/mL), an MIC (Staphylococcus aureus [3]) of 115 µM (≈ 64.1 µg/mL) and an MIC (Candida parapsilosis) of 470 µM (≈ 262 µg/mL). For the same molecule, the MIC (Pseudomonas aeruginosa [5]) was 230 µM (≈ 128 µg/mL), the MIC (Staphylococcus aureus [6]) was 115 µM (≈ 64.1 µg/mL) and the MIC (Enterococcus faecalis) was 58 µM (≈ 32.3 µg/mL). For the same molecule, the MIC (Staphylococcus aureus [7]) was 230 µM (≈ 128 µg/mL), the MIC (Candida albicans [35]) was 7 µM (≈ 3.9 µg/mL) and the MIC (Staphylococcus aureus [9]) was 230 µM (≈ 128 µg/mL). The MIC (Staphylococcus aureus [10]) was 115 µM (≈ 64.1 µg/mL), the MIC (Pseudomonas aeruginosa [11]) was 230 µM (≈ 128 µg/mL) and the MIC (Pseudomonas aeruginosa [12]) was 230 µM (≈ 128 µg/mL). It also gave an MIC (Pseudomonas aeruginosa [16]) of 230 µM (≈ 128 µg/mL), an MIC (Candida tropicalis) of 470 µM (≈ 262 µg/mL) and an MIC (Staphylococcus aureus [22]) of 115 µM (≈ 64.1 µg/mL). It also gave an MIC (Escherichia coli [23]) of 230 µM (≈ 128 µg/mL), an MIC (Klebsiella pneumoniae) of 230 µM (≈ 128 µg/mL) and an MIC (Escherichia coli [26]) of 115 µM (≈ 64.1 µg/mL). For the same molecule, the MIC (Pseudomonas aeruginosa [27]) was 230 µM (≈ 128 µg/mL), the MIC (Acinetobacter baumannii [28]) was 115 µM (≈ 64.1 µg/mL) and the MIC (Staphylococcus aureus [29]) was 230 µM (≈ 128 µg/mL). It also gave an MIC (Staphylococcus aureus [31]) of 58 µM (≈ 32.3 µg/mL) and an MIC (Staphylococcus aureus [32]) of 115 µM (≈ 64.1 µg/mL).

Work on `CCOC(=O)C1=C(CN2CCN(C(=O)/C(=N/OC)c3csc(N)n3)CC2)NC(=O)NC1c1ccc(OC)c(OC)c1OC` (stereo unspecified) yielded an MIC (Candida albicans [34]) of 398 µM (≈ 246 µg/mL), an MIC (Staphylococcus aureus [3]) of 104 µM (≈ 64.2 µg/mL) and an MIC (Candida parapsilosis) of 398 µM (≈ 246 µg/mL). For the same molecule, the MIC (Pseudomonas aeruginosa [5]) was 52 µM (≈ 32.1 µg/mL), the MIC (Staphylococcus aureus [6]) was 208 µM (≈ 128 µg/mL) and the MIC (Enterococcus faecalis) was 208 µM (≈ 128 µg/mL). For the same molecule, the MIC (Staphylococcus aureus [7]) was 208 µM (≈ 128 µg/mL), the MIC (Candida albicans [35]) was 398 µM (≈ 246 µg/mL) and the MIC (Staphylococcus aureus [9]) was 415 µM (≈ 256 µg/mL). For the same molecule, the MIC (Staphylococcus aureus [10]) was 208 µM (≈ 128 µg/mL), the MIC (Pseudomonas aeruginosa [11]) was 104 µM (≈ 64.2 µg/mL) and the MIC (Pseudomonas aeruginosa [12]) was 52 µM (≈ 32.1 µg/mL). It also gave an MIC (Pseudomonas aeruginosa [16]) of 104 µM (≈ 64.2 µg/mL), an MIC (Candida tropicalis) of 398 µM (≈ 246 µg/mL) and an MIC (Staphylococcus aureus [22]) of 208 µM (≈ 128 µg/mL). For the same molecule, the MIC (Escherichia coli [23]) was 52 µM (≈ 32.1 µg/mL), the MIC (Klebsiella pneumoniae) was 26 µM (≈ 16.1 µg/mL) and the MIC (Escherichia coli [26]) was 104 µM (≈ 64.2 µg/mL). It also gave an MIC (Pseudomonas aeruginosa [27]) of 104 µM (≈ 64.2 µg/mL), an MIC (Acinetobacter baumannii [28]) of 104 µM (≈ 64.2 µg/mL) and an MIC (Staphylococcus aureus [29]) of 415 µM (≈ 256 µg/mL). For the same molecule, the MIC (Staphylococcus aureus [31]) was 415 µM (≈ 256 µg/mL) and the MIC (Staphylococcus aureus [32]) was 208 µM (≈ 128 µg/mL).
